Where two headings read alike, the source gives them in different places.
Experiments:
[1] = test system: clinical E. coli isolates; assay: Clonotype-guided (CH, fumC-fimH) prediction of antimicrobial resistance, primary collection, >=80% clonotype susceptibility cutoff; design: species or system Escherichia coli; settings: for Resistance among allowed isolates (actual prevalence of resistance): allowed population; for Resistance among rejected isolates: rejected population
Experimental: (§1) Antimicrobial susceptibility profiles were determined using disk diffusion testing. The interpretive criteria were those specified by the Clinical and Laboratory Standards Institute (CLSI).
Internal (<500 bp) regions of fumC and fimH were amplified by PCR, and the DNA sequences were determined by Sanger sequencing. Each unique combination of fumC and fimH alleles defined a CH clonotype. The diversity of the clonotype distribution was evaluated using the Simpson's modified alpha-diversity index.
(§2) Each isolate in the primary collection was classified as resistant or susceptible to each of the 11 antimicrobials based on the prevalence of susceptibility to the particular antimicrobial in the rest of isolates belonging to the same clonotype (i.e., for each isolate classification, the susceptibility of the corresponding clonotype was recalculated by excluding the profile of the isolate to be classified). Thus, clonotype-guided antibiotic selection was evaluated only for isolates from clonotypes comprising greater than or equal to 2 isolates.

[2] = test system: clinical E. coli isolates; assay: Antimicrobial susceptibility by disk diffusion testing (CLSI criteria) of clinical E. coli isolates; type: cell-based, Escherichia coli; settings: for Observed Resistance rate: rate of resistant isolates among 1,413 nonsingleton isolates of the primary collection
Experimental: (Veterans Affairs Medical Center).
Antimicrobial susceptibility profiles were determined using disk diffusion testing.
The prevalence of susceptibility to individual agents was calculated for the total primary collection, for individual participating laboratories, and for individual CH clonotypes. Odds ratios (ORs) were calculated for each subgroup (i.e., laboratory or clonotype) relative to the rest of the population. If the OR was >2 or <0.5, its statistical significance was evaluated using Fisher's exact test.

[3] = test system: clinical E. coli isolates
From the text: The primary set of 1,518 recent clinical E. coli isolates consisted of consecutive single-patient human extraintestinal isolates recovered between October 2010 and June 2011 at five clinical microbiology laboratories serving distinct patient populations in Seattle, Wash. (Group Health Cooperative, Harborview Medical Center, Seattle Children's Hospital, and the University of Washington Medical Center), and Minneapolis, Minn. (Veterans Affairs Medical Center). […] Another set of E. coli isolates was obtained from the University Hospital in Munster, Germany, and consisted of 161 consecutive isolates from urine samples recovered from July to September 2012.
as §1, §2
To avoid potential self-selection bias in the analysis of these smaller groups, the susceptibility classification for the isolates in each subset was done after excluding the susceptibility profiles of that particular subset, i.e., by using the clonotype susceptibility profiles of the remaining isolates from common clonotypes (Table 4).

[4] = Harborview Med. Center, Seattle

| Compound | Resistance among allowed isolates (actual prevalence of resistance) [1] [%] | Resistance among rejected isolates [1] [%] | Observed Resistance rate [2] [%] | other results |
| --- | --- | --- | --- | --- |
| piperacillin-tazobactam [PTZ] | 3.8 | 13.3 | 3.96 | – |
| amoxicillin-clavulanate [A/K] | – | – | 25.5 | – |
| trimethoprim-sulfamethoxazole [T/S] | – | – | 26.9 | Total Resistant ([2]; Children's Hospital, Seattle): 34.2%; Total Resistant ([2]; Group Health Co-op, Seattle): 20.1%; Total Resistant [2, 4]: 30.4%; Total Resistant ([2]; Univ. of Münster, Münster, 161 urine isolates): 32.6%; Total Resistant ([2]; Univ. of Washington, Seattle): 33.3%; Total Resistant ([2]; VA Med. Center, Minneapolis): 34.0%; Resistance among allowed isolates ([3]; Children's Hospital, Seattle): 14.2%; Resistance among allowed isolates ([3]; Group Health Co-op, Seattle): 5.0%; Resistance among rejected isolates ([3]; Group Health Co-op, Seattle): 36.2%; Resistance among allowed isolates [3, 4]: 7.4%; Resistance among allowed isolates ([3]; Univ. of Münster, Münster): 14.3%; Resistance among allowed isolates ([3]; Univ. of Washington, Seattle): 11.4%; Resistance among rejected isolates ([3]; Univ. of Washington, Seattle): 62.6%; Resistance among allowed isolates ([3]; VA Med. Center, Minneapolis): 17.0%; Actual prevalence of resistance among allowed isolates, mean ([3]; mean over the laboratories): 12.1% |
| CO/N=C(\C(=O)N[C@@H]1C(=O)N2C(C(=O)O)=C(CSc3nc(=O)c(=O)[nH]n3C)CS[C@H]12)c1csc(N)n1 [CTR, ceftriaxone] | 4.2 | 31.1 | 5.38 | – |
| O=C1CN(/N=C/c2ccc([N+](=O)[O-])o2)C(=O)N1 [NIT, nitrofurantoin] | 5.5 | 27.4 | 6.79 | – |
| Cc1nnc(SCC2=C(C(=O)O)N3C(=O)[C@@H](NC(=O)Cn4cnnn4)[C@H]3SC2)s1 [CZ, cefazolin] | 10.7 | 32.0 | 19.7 | – |
| CC1(C)S[C@@H]2[C@H](NC(=O)[C@H](N)c3ccccc3)C(=O)N2[C@H]1C(=O)O [AMP, ampicillin] | 21.9 | 60.1 | 51.6 | – |
| CN(C)[C@@H]1C(O)=C(C(N)=O)C(=O)[C@@]2(O)C(O)=C3C(=O)c4c(O)cccc4[C@@](C)(O)[C@H]3C[C@@H]12 [TET, tetracycline] | 11.5 | 48.0 | 29.5 | – |
| gentamicin [GM] | 4.3 | 31.4 | 8.92 | – |
| ampicillin-sulbactam [A/S] | 13.0 | 37.9 | 29.4 | – |
